What all share (assay type): in vivo, rat
The subject of test [1] is IL-1β. As to the kind of experiment: Inflammatory marker IL-1β (ELISA), AlCl3 Alzheimer's model. The following applies: for IL-1β: p.o. + AlCl3 (100 mg/kg, i.p.), n = 6. The source says:
The inflammatory markers Fibrinogen, IL-1β were estimated using ELISA kit (Krishgen Biosystems, India).

Test [2] deals with Dopamine. As to the kind of experiment: Dopamine in brain (kinetic spectrophotometric), reserpine Parkinson's model. The following applies: for Dopamine: p.o. + Reserpine (4 mg/kg, s.c.), brain, Mean ± SEM, n = 6. The source says:
The induction of Parkinson's disease and measurement of other parameters were done as per the reported protocol (Santos et al., Cognitive, motor and tyrosine hydroxylase temporal impairment in a model of parkinsonism induced by reserpine. Behav Brain Res. 2013; 253:68-77 and Shishehbore et al. A novel kinetic spectrophotometric method for the determination of dopamine in biological and pharmaceutical samples. J Chem. 2013; 2013:1-6). Induction of Parkinson's disease was done by administering Resperine, which inhibits the monoamine vesicular transporters, thus decreasing the levels of monoamine neurotransmitters in the brain. Following pretreatment for 14 days with Gingerenone A, the rat groups received subcutaneous injections of reserpine (4 mg/kg) for the final five days of the treatment regimen. Resperine (5 mg) was dissolved in 1 ml of 1% acetic acid and then diluted tenfold with distilled water to achieve a final concentration of 500 μg/ml. The normal control group received saline with 1% acetic acid for 14 days, administered from day 10 to day 14. Thirty minutes following the administration of reserpine on the 14th day, behavioural assessments were conducted using the Open Field test, Y Maze, and Catalepsy tests to evaluate changes. […] Upon completion of the study, brains were harvested for biochemical analyses and histopathological studies. The experimental group is depicted in table 10.
Dopamine—Studies have shown that symptoms of Parkinson's develop in patients with an 80 percent or greater loss of dopamine-producing cells in the substantia nigra. Normally, dopamine operates in a delicate balance with other neurotransmitters to help coordinate the millions of nerve and muscle cells involved in movement. Neurons of the substantia nigra communicate with neurons of the basal ganglia by liberating the neurotransmitter dopamine (DA). Such an interaction at the biochemical level is responsible for the fine tuning of the movements. The proposed method for the estimation of dopamine is based on inhibitory effect of dopamine on the oxidation of thionine by bromate in acidic media. The change in absorbance was recorded spectrophotometrically at 601 nm (Shishehbore et al., Novel Kinetic Spectrophotometric Method for the Determination of Dopamine in Biological and Pharmaceutical Samples. 2013. Article ID 819460, https://doi.org/10.1155/2013/819460).

Test [3] has as its system BDNF. Nature of the test: BDNF level in brain homogenate (ELISA), AlCl3 Alzheimer's model. The following applies: for BDNF: p.o. + AlCl3 (100 mg/kg, i.p.), brain homogenate, Mean ± SEM, n = 6. The source says: Brain-derived neurotrophic factors (BDNFs) play an important role in maintaining synaptic plasticity in learning and memory. Depletion of BDNF has been linked with Aβ accumulation, tau phosphorylation, neuroinflammation and neuronal apoptosis. Considering AD as a synaptic disorder, BDNF has attracted increasing attention as a potential diagnostic biomarker and a therapeutical molecule for AD. In the current study, BDNF levels were determiner using ELISA kit (Krishgen Biosystems, India).

The test system of test [4] is Alzheimer's disease. Nature of the test: Novel object recognition (NOR) test in rats with AlCl3-induced Alzheimer's disease. The following applies: for % Recognition Index: p.o. + AlCl3 (100 mg/kg, i.p.), NOR at 15th day, Mean ± SEM, n = 6. How it is done:
Novel object recognition (NOR)—Novel object recognition (NOR)—This test was performed as per reported protocol (Antunes M, Biala G. The novel object recognition memory: neurobiology, test procedure, and its modifications. Cognit. Process. 2012:13, 93-110). During the retrieval phase, the animal was allowed to explore the field for 10 min. The hippocampal functions were assessed through the recognition indices, which were measured according to the time spent by the animals to explore the familiar and new objects.
The test is a relatively fast and efficient means for testing learning and memory in an animal model. The test relies on only three sessions: one habituation session, one training session, and one test session and relies on rodents' natural proclivity for exploring novelty. This is a relatively low-stress, efficient test for memory in an animal model, and is appropriate for the detection of neuropsychological changes after the administration of test drugs (Lupetow L, Novel Object Recognition Test for the Investigation of Learning and Memory in Mice, J Vis Exp. 2017; (126): 55718).

Test [5] has as its system Alzheimer's disease. As to the kind of experiment: Morris water maze (MWM) test in rats with AlCl3-induced Alzheimer's disease. The following applies: for Escape Latency Time: p.o. + AlCl3 (100 mg/kg, i.p.), MWM at 17th day, Mean ± SEM, n = 6. The procedure: Morris water maze (MWM)—This test was performed as per protocol established by Ishola et al., Protective role of Spondiasmombin leaf and Cola acuminata seed extracts against scopolamine-induced cognitive dysfunction. Alexandria J Med. 2018; 54(1):27-39. MWM is a round water tank “diameter: 110 cm and height: 60 cm” consisting of a white surface and that is filled using opaque water (Temp. 26±2° C.) to a distance (depth) of 30 cm. The MWM tank circle is divided into 4 equal quadrants [North Quadrant 1, East Quadrant 2, West Quadrant 3, and South Quadrant 4]. Further, it consists of a 10 cm diameter platform in a constant position. Index of memory improvement is measured by the Escape Latency Time (ELT)—which is the time the animal takes to find the platform.
The MWM plays an important role in the testing of learning and memory in rodent models of Alzheimer's Disease. It is used to test hippocampal-dependent learning, including acquisition of spatial memory and long-term spatial memory (Bromley-Brits et al., Morris water maze test for learning and memory deficits in Alzheimer's disease model mice, J Vis Exp., 2011 Jul. 20:(53):2920). In this study, learning was impaired in the Alzheimer's group.

Marks after values point to notes of the source that are not given here.

`COc1cc(CC/C=C/C(=O)CCc2ccc(O)c(OC)c2)ccc1O` [Gingerenone A]: the IL-1β in test [1] (5 mg/kg) was 97.92 pg/mL; in test [1] (10 mg/kg), 84.90* pg/ml; in test [1] (20 mg/kg), 80.65** pg/ml. Also, the “IL-1β (in words)” value in test [1] (AlCl3 model, Table 9) is “significantly reduced”. Moreover, the Dopamine amounted to 0.124 ± 0.007 µg/mL in test [2] (5 mg/kg), 0.142 ± 0.011 µg/mL in test [2] (10 mg/kg) and 0.141 ± 0.011 µg/mL in test [2] (20 mg/kg). Moreover, in test [2] (reserpine model, Table 14), the “dopamine levels (in words)” value is “increased”. In addition, the BDNF was found to be 29.36 ± 1.09 pg/mL in test [3] (5 mg/kg), 36.07 ± 1.54 pg/mL in test [3] (10 mg/kg) and 38.76 ± 2.05 pg/mL in test [3] (20 mg/kg). Moreover, the “levels of BDNF (in words)” value in test [3] (AlCl3 model, Table 6) was “significantly increased the levels of BDNF”. The “% Recognition Index” value stood at 56.23 ± 2.35% in test [4] (5 mg/kg), 65.54 ± 2.78 % in test [4] (10 mg/kg) and 66.53 ± 3.20 % in test [4] (20 mg/kg). Further, in test [4] (AlCl3 model, Table 2), the “recognition index (in words)” value is recorded as “effectively improved the scores”. Moreover, the “Escape Latency Time” value in test [5] (5 mg/kg) came out at 34.47 ± 3.87 s; in test [5] (10 mg/kg) it was 27.73 ± 2.18 s; in test [5] (20 mg/kg), 27.82 ± 2.63 s. Moreover, the “learning and memory in MWM (in words)” value in test [5] (AlCl3 model, Table 4) was “significantly improved learning and memory”.

The values above are taken from patent US20260325464A1, “COMPOSITIONS FOR MODULATING THE EXPRESSION OF AQUAPORINS IN NEURODEGENERATIVE DISORDERS” (priority 2023, published 2026).
